One molecule from patent US20080300298A1, “Honokiol Derivates For the Treatment of Proliferative Disorders” (priority 2005, published 2008) can be followed below.

In assay [1] the test system is glioblastoma multiforme cell lines, U343 and T98G. Nature of the assay: MTT proliferation assay. It is filed as cell-based. The conditions noted are these: 10-70 μM, 24 hours. As for the experimental part:
(§1) Cell lines: All cell lines were obtained from American Type Culture Collection. The breast cancer cell lines used: MCF-7 and BT-474 cells were grown in DMEM medium containing 10% FCS; MDA-MB-231, SK-BR-3, MDA-MB-436 and T47-D cells were grown in RPMI medium containing 10% FCS. The glioblastoma multiforme cell lines (U343 and T98G) were maintained in DMEM modified medium containing 10% FCS.
(§2) 3-(4,5-dimethylthiazol-2-yl)-2,5-diphenyltetrazolium bromide (MTT) proliferation assays: 3×10^3 cells/well were plated in 96-well plates, cultured in the appropriate culture media containing 10% FCS, and treated with either control vehicle or various concentrations of HNK, alone or with a secondary drug, as indicated. All secondary drugs were freshly diluted in growth media and immediately added to cells along with the HNK. After 24 hours of incubation at 37° C., 5% CO2, the cells were cultured for four hours with 10% MTT reagent (5 mg/ml; Sigma-Aldrich, St. Louis, Mo.). The medium was aspirated, and the cells were dissolved by dimethyl sulfoxide (DMSO). Absorbance of the formazan product was measured by an enzyme-linked immunosorbent assay reader (Macintosh).
(§3) HNK inhibits growth of breast cancer cells. Breast cancer cells were treated with different concentrations of HNK for 24 hours, and MTT assays were conducted to assess viability. The selected cell lines have different phenotypes and different expression patterns of the estrogen receptor (ER), Her2 and p53, and thus represent various subclasses of breast cancer. […] Similar analyses were also conducted for two glioblastoma multiforme cell lines, U343 and T98G. Over the same dose-range (10-70 μM), both cell lines were resistant to HNK (FIGS. 34 A, B).
On the technique in general: Tetrazolium dyes change colour on reduction, which living cells bring about.

The test system of another assay is SKBR-3 cell. Nature of the assay: MTT proliferation assay. It counts as cell-based. The conditions noted are these: Homo sapiens, SK-BR-3, 24 h, read-out: concentration that reduced viability by 50% (LC50). As for the experimental part: as §1, §2, §3
In another assay the test system is BT-474 cells. Nature of the assay: MTT proliferation assay. It is filed as cell-based. The note with it: Homo sapiens, BT-474, 24 h, read-out: concentration that reduced viability by 50% (LC50). As for the experimental part: as §1, §2, §3
The subject of assay [2] is tumor cells isolated from patients with relapsed refractory MM. The experiment in a line: cytotoxicity against patient MM cells (CD38high, flow cytometry). It counts as cell-based, human. The note with it: 8 ug/ml, 48 h, N=6, mean ±SD. As for the experimental part:
Assessment of HNK-induced cytotoxicity against patient MM cells: Cytotoxicity of HNK against fresh MM cells was determined as previously determined, see, for example, Mitsiades et al Cancer Cell. 2004; 5:221-230. Fresh MNCs separated from bone marrow samples derived from patients with MM were incubated with PE-conjugated anti-CD138 antibody and/or FITC-conjugated anti-CD38 antibody (BD Biosciences, San Diego, Calif.) for 30 minutes on ice and washed, followed by analysis using EPICS XL flow cytometer (Beckman Coulter, Hialeah, Fla.). A CD38^high fraction enriched for MM cells was determined in side and forward scatter panel in each case. The expression of CD138 on gated cells was also evaluated. After HNK-treatment for 48 h, cells were harvested and percentage of CD38^high cells with or without HNK-treatment was evaluated. […] Cells were stained with propidium iodide (PI; 50 μg/mL; Sigma, St Louis, Mo.), and cell cycle profile was determined by using the program M software on an EPICS XL flow cytometer (Beckman Coulter, Hialeah, Fla.). […] Fluorescence intensity of TUNEL and APO 2.7 staining was determined using on EPICS XL flow cytometer. Cytotoxicity was determined by trypan blue exclusion assay. […] Cell growth and induction of apoptosis were determined both by colorimetric assay and now cytometric detection of APO2.7 after 48 h treatment. […] DNA synthesis was measured by [^3H]-thymidine uptake. […]

As to `C=CCc1ccc(O)c(-c2ccc(O)c(CC=C)c2)c1` [HNK, Honokiol], the “viability of glioblastoma multiforme cell lines” value in assay [1] is given as “resistant”. In addition, the CC50 was determined as 29 µM in the assay on SKBR-3 cell and 50 µM in the assay on BT-474 cells. The “percentage of CD38high cells compared to control cultures” value in assay [2] amounted to 26.2±15.8%.
